According to ChEMBL document CHEMBL3997836, “Leupeptazin, a highly modified tripeptide isolated from cultures of a Streptomyces sp. inhibits cathepsin K” (Bioorg Med Chem Lett, 2017):

Biological target: T1, Cathepsin K (Homo sapiens, UniProt P43235)
T1 sequence (P43235 whole entry): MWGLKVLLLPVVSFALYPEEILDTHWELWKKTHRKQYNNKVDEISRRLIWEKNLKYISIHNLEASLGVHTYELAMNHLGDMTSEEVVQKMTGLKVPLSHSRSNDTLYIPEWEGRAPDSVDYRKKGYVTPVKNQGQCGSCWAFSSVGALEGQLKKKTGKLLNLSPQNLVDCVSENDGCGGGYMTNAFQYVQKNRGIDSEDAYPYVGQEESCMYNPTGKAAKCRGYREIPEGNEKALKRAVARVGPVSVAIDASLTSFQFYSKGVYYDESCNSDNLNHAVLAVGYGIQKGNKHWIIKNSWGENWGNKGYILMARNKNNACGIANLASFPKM
Test: Competitive inhibition of recombinant human cathepsin K expressed in Pichia pastoris using Z-FR-MCA as substrate by Dixon plot method

Ki [µM] | SMILES
44 | CC(=O)N[C@@H](CC(C)C)C(=O)N[C@@H](CC(C)C)C(=O)N[C@H]1CCCN2C(N)=NC(=N)N[C@@H]12
0.024 | CC(=O)N[C@@H](CC(C)C)C(=O)N[C@@H](CC(C)C)C(=O)N[C@H](C=O)CCCNC(=N)N [LEUPEPTIN]
